In patent US20120034608A1, “MICRORNA AS A BIOMARKER OF PANCREATIC ISLET BETA-CELL ENGAGEMENT” (Merck Sharp & Dohme Corp., priority 2009, published 2012):

What was measured:
[1] = test system: INS-1 832/13 cells; test: TAQMAN analysis of miRNA expression in INS-1 832/13 cells; assay type: cell-based, rat; conditions: 24 hours post-GLP-1 treatment
Description: (§1) INS-1 832/3 and 832/13 cells were maintained in RPMI 1640 with 10% FBS and 11 mM glucose. For GLP-1 treatment, GLP-1 (7-37) amide (ABCHEM) was added in the media in the presence of 16 mM glucose for 24 hours. Total RNA was extracted with TRIZOL as in Example 1. Rat islet isolation and treatment was as follows. Pancreatic islets of Langerhans were isolated from the pancreas of normal Sprague-Dawley rats (Charles River, Ind.) by collagenase digestion and discontinuous Ficoll gradient separation (15). Islets were cultured for 2 hours in RPMI 1640 medium with 11 mM glucose for recovery from the isolation process. Then 100-200 islets were treated with 50 nM GLP-1 in the media with 11 mM glucose for 24 hours. RNA was extracted with TRIZOL as in Example 1 for quantification of microRNA species.
Fluorogenic TAQMAN detector probes specific for miR-132 (Cat# TM457), miR-212 (Cat# TM515), miR-375 (Cat#TM564), and miR-217 (Cat#1133) were purchased from Applied Biosystems (Foster City, Calif.). […]
Relative miRNA levels for the miRNAs of interest were determined by real-time reverse transcription reaction using the ABI PRISM 7900 Sequence Detection System from Applied Biosystems (Foster City, Calif.) according to the manufacturer's protocol. […] Data were collected and analyzed with SDS v.2.2.2 software (Applied Biosystems). […]

[2] = test system: INS-1 832/3 cells; test: glucose dependent insulin secretion (GDIS) assay in INS-1 832/3 cells; assay type: cell-based, rat; conditions: 16 mM glucose, two-hour incubation in KRB
Excerpt: We overexpressed the precursors of miR-132 and miR-212 to evaluate their possible contribution to β-cell function. MicroRNA miR-375 was included as a control as it been reported to have an inhibitory effect on GDIS (Poy et al., Nature 432: 226-230 (2004)). Chemically modified Pre-miR™ miRNA precursor molecules and Anti-miR™ miRNA inhibitors were purchased from Ambion (Foster City, Calif.). miRCURY LNA™ microRNA knockdown oligonucleotides were purchased from Exiqon (Woburn, Mass.). The oligonucleotide molecules were delivered to the cells by the Nucleofector Device (Amaxa, Gaithersburg, Md.). In brief, INS-1 cells were trypsinized, centrifuged, and resuspended in 100 μl Nucleofector solution V. Then 100-500 pmole RNA oligonucleotides were transfected to 3-million cells at the concentration of 1-5 μM with the Amaxa Nucleofector Device. Scramble controls from the vendors were used with the same transfection method. After electroporation, the cells were transferred to regular culture medium and then split into replicates in 96-well plates. Insulin secretion assay or LANCE cAMP assay were performed 48 hours post electroporation.
INS-1 cell glucose dependent insulin secretion (GDIS) assay was performed as follows. The GDIS assay was performed with cells grown to near confluency in 96-well plates. Prior to the assay, cells were washed once with PBS and pre-incubated for two hours in freshly prepared Krebs-Ringer Bicarbonate (KRB) medium without glucose. The medium were then replaced with KRB with 2, 8 or 16 mM glucose or along with 10 nM GLP-1. The cells were incubated for another two hours in a CO2 incubator. The media was then removed at the end of incubation, and assayed for insulin levels by Ultra-sensitive Rat Insulin ELISA kit (ALPCO, Salem, N.H.) or insulin immunoassay by Gyrolab workstation (GYROS AB, Uppsala, Sweden). Intracellular insulin was extracted by acid ethanol method for measuring intracellular insulin content. Total protein was measured by Pierce 660 nm Protein Assay from Pierce Biotechnology, Inc. (Rockford, Ill.).

[3] = test system: rat pancreatic islets; test: miRNA expression in isolated rat islets (TAQMAN); assay type: cell-based; conditions: 50 nM GLP-1, 11 mM glucose, 24 hours
Description: as §1
To verify that GLP-1 mediated miR-212 and miR-132 expression changes are of biological relevance, we analyzed their expression in freshly isolated rat islets treated with GLP-1. Pancreatic islets of Langerhans were isolated from the pancreas of normal Sprague-Dawley rats (Charles River, Ind.) by collagenase digestion and discontinuous Ficoll gradient separation. Islets were cultured for two hours in RPMI 1640 medium with 11 mM glucose for recovery from the isolation process. Then 100 to 200 islets were treated with 50 nM GLP-1 in the media with 11 mM glucose for 24 hours. RNA was extracted with TRIZOL reagent/ethanol precipitation followed by quantification of miRNA species. […] The regulation of miR-132 and miR-212 expression by GLP-1 was confirmed in rat pancreatic islets.

## GLP-1 (7-37) amide
[1]
  increase of miR-132 expression in response to GLP-1: not observed
  increase of miR-212 expression in response to GLP-1: not observed
[2]
  increase of insulin secretion upon treatment with GLP-1: greater than 300%
[3]
  miR-132 expression level increased: 2 fold
  miR-212 expression level increased: 2 fold
  regulation of miR-375 and miR-217 expression: Neither miR-375 nor miR-217 was significantly regulated
